Reference: ChEMBL document CHEMBL4808251, “Preparation, biological & cheminformatics-based assessment of N2,N4-diphenylpyrimidine-2,4-diamine as potential Kinase-targeted antimalarials” (Bioorg Med Chem, 2021)
≈ marks a conversion by molar mass, not a printed value.

Key:
[1] = biological target: VEGFR1 (Vascular endothelial growth factor receptor 1) (Homo sapiens, UniProt P17948); experiment: Inhibition of human VEGFR1 at 1 uM measured after 30 mins by [gamma-33P]-ATP assay; details: human VEGFR1 kinase
VEGFR1 (Vascular endothelial growth factor receptor 1), sequence (P17948 whole entry): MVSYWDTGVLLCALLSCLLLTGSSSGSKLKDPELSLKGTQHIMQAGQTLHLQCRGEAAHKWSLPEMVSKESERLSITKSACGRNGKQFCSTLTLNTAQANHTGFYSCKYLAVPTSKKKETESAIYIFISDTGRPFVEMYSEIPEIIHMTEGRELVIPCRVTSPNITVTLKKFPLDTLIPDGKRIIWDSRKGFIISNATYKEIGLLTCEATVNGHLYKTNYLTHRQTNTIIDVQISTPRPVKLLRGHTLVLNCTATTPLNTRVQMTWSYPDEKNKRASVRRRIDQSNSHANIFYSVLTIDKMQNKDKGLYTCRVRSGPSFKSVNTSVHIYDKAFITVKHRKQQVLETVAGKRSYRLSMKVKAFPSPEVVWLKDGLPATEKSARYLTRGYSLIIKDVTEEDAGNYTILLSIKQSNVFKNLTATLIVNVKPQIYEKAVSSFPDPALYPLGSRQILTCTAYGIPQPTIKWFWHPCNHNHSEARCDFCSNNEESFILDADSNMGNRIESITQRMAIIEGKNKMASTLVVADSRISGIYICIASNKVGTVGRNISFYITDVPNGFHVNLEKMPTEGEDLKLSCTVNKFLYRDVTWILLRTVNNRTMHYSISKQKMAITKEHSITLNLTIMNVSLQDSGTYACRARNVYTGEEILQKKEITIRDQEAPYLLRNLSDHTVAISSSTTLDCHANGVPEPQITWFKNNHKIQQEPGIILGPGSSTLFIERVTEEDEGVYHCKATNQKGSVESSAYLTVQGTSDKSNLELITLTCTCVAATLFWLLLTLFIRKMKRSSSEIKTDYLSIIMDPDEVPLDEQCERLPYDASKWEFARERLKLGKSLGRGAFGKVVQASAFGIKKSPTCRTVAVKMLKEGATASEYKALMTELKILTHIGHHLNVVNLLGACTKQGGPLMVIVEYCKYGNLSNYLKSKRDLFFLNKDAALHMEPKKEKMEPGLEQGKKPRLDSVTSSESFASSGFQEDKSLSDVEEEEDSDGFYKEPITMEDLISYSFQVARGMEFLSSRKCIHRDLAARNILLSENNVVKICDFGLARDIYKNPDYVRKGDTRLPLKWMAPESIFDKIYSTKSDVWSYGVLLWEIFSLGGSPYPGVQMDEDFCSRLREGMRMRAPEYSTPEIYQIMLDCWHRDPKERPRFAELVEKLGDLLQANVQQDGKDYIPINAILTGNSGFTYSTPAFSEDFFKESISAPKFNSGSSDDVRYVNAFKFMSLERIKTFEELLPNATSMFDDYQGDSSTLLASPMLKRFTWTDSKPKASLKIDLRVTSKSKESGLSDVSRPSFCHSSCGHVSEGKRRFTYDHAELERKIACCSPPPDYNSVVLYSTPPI

[2] = biological target: T1, Aurora kinase A (Homo sapiens, UniProt O14965); experiment: Inhibition of human Aurora A at 1 uM measured after 30 mins by [gamma-33P]-ATP assay
T1 sequence (O14965 whole entry): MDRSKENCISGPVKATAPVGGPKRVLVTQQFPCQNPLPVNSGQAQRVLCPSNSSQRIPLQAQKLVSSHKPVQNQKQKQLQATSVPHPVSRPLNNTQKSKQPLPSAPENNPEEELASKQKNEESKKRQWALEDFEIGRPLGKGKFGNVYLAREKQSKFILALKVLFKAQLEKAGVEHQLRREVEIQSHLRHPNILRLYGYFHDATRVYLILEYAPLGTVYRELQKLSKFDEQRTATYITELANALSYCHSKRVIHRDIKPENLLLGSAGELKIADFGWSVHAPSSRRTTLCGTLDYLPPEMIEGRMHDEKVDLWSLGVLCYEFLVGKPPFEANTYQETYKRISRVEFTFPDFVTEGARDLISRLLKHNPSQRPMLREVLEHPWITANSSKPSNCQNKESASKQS

[3] = system: Plasmodium falciparum; experiment: Antimalarial activity against chloroquine-sensitive plasmodium falciparum 3D7 infected in human erythrocytes assessed as parasite growth inhibition measured after 72 hrs by SYBR green dye based fluorescence analysis; type: functional, organism-based; details: 3D7, Erythrocyte
[4] = Intrinsic clearance in human liver microsomes at 0.5 uM in the presence of NADPH measured upto 30 mins by UPLC-MS/MS analysis; type: ADME, Microsome; details: 0.5 h
[5] = biological target: HER4 (Receptor tyrosine-protein kinase erbB-4) (Homo sapiens, UniProt Q15303); experiment: Inhibition of human HER4 at 1 uM measured after 30 mins by [gamma-33P]-ATP assay
HER4 (Receptor tyrosine-protein kinase erbB-4), sequence (Q15303 whole entry): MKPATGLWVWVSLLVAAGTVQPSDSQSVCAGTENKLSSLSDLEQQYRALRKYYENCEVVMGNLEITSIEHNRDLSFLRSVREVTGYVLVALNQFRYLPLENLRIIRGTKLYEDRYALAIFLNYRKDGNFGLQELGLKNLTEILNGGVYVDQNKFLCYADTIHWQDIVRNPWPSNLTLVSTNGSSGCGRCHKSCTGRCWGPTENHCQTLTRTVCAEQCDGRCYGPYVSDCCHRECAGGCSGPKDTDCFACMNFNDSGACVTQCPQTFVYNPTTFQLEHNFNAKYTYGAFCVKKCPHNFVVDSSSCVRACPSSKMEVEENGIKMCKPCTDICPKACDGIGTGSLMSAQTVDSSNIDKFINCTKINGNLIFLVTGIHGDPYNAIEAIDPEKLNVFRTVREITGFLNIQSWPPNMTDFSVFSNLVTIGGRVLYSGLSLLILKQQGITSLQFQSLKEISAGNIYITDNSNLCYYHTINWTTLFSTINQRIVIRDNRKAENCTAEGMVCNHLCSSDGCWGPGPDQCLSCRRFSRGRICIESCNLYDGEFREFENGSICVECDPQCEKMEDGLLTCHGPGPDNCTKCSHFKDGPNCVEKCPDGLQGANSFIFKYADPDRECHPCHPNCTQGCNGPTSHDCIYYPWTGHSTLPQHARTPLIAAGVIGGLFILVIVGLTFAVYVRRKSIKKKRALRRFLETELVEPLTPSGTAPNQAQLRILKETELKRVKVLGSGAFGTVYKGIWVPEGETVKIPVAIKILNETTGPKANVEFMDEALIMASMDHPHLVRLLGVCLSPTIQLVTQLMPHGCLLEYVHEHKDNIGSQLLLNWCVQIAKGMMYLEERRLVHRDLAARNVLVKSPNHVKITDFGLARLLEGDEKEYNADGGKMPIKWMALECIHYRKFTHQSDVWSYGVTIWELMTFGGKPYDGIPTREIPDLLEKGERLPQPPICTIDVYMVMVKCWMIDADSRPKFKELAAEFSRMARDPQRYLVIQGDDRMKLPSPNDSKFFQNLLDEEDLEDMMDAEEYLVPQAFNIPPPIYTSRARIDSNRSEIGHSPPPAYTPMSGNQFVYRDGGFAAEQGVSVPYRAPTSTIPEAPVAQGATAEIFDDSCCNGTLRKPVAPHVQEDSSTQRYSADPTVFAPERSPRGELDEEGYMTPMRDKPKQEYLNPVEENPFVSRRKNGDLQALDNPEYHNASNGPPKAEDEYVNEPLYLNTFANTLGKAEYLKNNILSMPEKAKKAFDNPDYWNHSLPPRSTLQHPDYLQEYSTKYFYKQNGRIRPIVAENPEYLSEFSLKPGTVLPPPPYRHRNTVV

[6] = 1-octanol/water partition coefficient, logD of the compound at pH 7.4 measured after 6 hrs by shake flask technique based HPLC-UV analysis; type: physicochemical
[7] = Aqueous solubility of compound in PBS at pH 7.4 by HPLC-UV analysis; type: physicochemical
[8] = biological target: CDK2 (Cyclin-dependent kinase 2) (Homo sapiens, UniProt P24941); experiment: Inhibition of human CDK2 at 1 uM measured after 30 mins by [gamma-33P]-ATP assay
[9] = Selectivity index, ratio of IC50 for cytotoxicity against human HepG2 cells to IC50 for antimalarial activity against chloroquine-sensitive plasmodium falciparum 3D7 infected in human erythrocytes; type: toxicity, cell-based; details: read-out: Ratio IC50
[10] = system: HepG2; experiment: Cytotoxicity against human HepG2 cells assessed as inhibition of cell growth measured after 72 hrs by resazurin dye based fluorescence assay; details: HepG2, 72 h
[11] = biological target: JNK1 (Mitogen-activated protein kinase 8) (Homo sapiens, UniProt P45983); experiment: Inhibition of human JNK1 at 1 uM measured after 30 mins by [gamma-33P]-ATP assay
JNK1 (Mitogen-activated protein kinase 8), sequence (P45983 whole entry): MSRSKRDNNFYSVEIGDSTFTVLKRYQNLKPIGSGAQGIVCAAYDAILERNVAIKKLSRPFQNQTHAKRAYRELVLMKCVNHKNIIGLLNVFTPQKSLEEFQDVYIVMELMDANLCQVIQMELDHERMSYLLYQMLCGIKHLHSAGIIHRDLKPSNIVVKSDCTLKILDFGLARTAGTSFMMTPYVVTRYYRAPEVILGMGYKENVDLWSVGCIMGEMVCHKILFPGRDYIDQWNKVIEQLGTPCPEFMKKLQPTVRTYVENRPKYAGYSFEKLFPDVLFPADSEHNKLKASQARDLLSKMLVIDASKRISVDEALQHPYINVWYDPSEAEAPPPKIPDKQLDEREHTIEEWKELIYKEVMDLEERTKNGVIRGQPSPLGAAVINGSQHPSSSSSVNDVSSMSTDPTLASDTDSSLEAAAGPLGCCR

[12] = biological target: ERK1 (Mitogen-activated protein kinase 3) (Homo sapiens, UniProt P27361); experiment: Inhibition of human ERK1 at 1 uM measured after 30 mins by [gamma-33P]-ATP assay
[13] = Effective permeability of the compound in PBS at pH 7.4 at 10 uM incubated for 5 hrs by PAMPA based UPLC-MS/MS analysis; type: ADME; details: read-out: permeability
[14] = biological target: MEKK1 (Mitogen-activated protein kinase kinase kinase 1) (Homo sapiens, UniProt Q13233); experiment: Inhibition of human MEKK1 at 1 uM measured after 30 mins by [gamma-33P]-ATP assay
MEKK1 (Mitogen-activated protein kinase kinase kinase 1), sequence (Q13233 whole entry): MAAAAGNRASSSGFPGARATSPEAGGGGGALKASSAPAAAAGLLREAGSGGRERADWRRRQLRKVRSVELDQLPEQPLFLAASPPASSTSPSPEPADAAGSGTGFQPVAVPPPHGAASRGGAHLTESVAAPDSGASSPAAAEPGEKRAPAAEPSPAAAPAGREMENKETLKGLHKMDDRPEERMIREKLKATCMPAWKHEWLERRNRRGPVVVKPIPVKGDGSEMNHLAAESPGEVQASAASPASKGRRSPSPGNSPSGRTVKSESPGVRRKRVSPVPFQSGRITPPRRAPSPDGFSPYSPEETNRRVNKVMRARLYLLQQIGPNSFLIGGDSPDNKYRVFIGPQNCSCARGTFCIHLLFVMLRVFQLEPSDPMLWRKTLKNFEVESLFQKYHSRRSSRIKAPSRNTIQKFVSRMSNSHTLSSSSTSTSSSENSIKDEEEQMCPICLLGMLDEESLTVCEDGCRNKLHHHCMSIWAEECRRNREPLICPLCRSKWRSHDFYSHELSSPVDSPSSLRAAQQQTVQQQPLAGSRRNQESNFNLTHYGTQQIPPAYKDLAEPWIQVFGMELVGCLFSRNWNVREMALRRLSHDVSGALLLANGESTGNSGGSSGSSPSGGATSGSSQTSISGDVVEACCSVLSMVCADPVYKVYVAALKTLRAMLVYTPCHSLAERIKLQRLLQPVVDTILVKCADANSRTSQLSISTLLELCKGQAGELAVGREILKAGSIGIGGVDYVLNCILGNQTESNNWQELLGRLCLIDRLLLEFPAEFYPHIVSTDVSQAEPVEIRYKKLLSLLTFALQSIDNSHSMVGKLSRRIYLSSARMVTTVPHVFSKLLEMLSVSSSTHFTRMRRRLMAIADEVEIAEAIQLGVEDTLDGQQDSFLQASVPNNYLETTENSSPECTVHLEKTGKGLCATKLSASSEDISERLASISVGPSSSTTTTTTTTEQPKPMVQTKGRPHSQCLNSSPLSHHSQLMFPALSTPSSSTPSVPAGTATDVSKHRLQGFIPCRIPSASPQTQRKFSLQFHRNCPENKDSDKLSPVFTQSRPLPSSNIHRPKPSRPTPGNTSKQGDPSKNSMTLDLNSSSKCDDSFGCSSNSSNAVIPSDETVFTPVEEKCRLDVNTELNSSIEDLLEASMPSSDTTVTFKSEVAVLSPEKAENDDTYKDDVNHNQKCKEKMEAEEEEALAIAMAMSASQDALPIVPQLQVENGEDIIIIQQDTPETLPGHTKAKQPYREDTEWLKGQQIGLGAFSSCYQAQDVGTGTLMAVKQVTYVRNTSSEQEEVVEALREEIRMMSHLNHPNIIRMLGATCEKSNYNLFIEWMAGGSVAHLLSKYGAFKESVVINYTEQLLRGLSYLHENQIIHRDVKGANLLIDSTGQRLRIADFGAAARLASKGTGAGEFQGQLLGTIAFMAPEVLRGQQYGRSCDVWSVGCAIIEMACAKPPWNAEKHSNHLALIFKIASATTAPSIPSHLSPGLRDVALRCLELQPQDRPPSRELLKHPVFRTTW

[15] = biological target: T2, JAK3 (Tyrosine-protein kinase JAK3) (Homo sapiens, UniProt P52333); experiment: Inhibition of human JAK3 at 1 uM measured after 30 mins by [gamma-33P]-ATP assay
T2 sequence (P52333 whole entry): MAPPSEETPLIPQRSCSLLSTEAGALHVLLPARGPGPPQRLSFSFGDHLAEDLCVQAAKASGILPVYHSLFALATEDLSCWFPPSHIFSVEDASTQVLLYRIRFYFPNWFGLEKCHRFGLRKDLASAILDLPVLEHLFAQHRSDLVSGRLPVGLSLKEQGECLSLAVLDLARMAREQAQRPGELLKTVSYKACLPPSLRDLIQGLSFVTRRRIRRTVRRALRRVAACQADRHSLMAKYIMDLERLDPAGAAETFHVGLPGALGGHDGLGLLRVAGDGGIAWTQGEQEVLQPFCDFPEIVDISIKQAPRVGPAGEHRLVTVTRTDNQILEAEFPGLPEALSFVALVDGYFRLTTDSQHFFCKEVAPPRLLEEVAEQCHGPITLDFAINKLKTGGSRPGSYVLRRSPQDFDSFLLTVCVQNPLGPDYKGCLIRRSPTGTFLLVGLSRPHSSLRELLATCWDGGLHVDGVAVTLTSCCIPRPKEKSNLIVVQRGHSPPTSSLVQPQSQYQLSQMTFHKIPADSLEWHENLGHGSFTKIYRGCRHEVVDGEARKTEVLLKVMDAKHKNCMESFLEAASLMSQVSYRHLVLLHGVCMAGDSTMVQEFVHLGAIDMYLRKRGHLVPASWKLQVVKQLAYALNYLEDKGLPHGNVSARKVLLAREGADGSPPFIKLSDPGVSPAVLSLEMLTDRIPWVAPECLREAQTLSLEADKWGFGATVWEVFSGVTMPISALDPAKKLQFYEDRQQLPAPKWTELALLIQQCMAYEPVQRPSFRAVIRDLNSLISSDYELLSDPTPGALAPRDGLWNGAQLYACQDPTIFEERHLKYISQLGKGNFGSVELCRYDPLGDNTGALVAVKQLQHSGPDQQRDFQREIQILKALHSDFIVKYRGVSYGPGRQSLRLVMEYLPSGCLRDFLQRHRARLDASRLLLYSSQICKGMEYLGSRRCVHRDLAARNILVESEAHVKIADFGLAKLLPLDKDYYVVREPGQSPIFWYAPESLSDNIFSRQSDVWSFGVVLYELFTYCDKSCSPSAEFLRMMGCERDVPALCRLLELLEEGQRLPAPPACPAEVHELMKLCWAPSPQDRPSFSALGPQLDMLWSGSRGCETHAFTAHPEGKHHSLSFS

[16] = biological target: PIM1 (Serine/threonine-protein kinase pim-1) (Homo sapiens, UniProt P11309); experiment: Inhibition of human PIM1 at 1 uM measured after 30 mins by [gamma-33P]-ATP assay
PIM1 (Serine/threonine-protein kinase pim-1), sequence (P11309 whole entry): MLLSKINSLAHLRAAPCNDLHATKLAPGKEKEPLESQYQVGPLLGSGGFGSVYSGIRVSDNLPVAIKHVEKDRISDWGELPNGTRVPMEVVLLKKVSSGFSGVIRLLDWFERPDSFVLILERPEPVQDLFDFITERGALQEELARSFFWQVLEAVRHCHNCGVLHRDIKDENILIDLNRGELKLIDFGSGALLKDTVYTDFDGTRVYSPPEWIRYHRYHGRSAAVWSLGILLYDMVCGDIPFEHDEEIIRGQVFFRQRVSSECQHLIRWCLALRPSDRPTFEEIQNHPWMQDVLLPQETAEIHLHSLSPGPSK

[17] = Cytotoxicity against human HepG2 cells assessed as inhibition of cell viability relative to control; type: cell-based; details: read-out: INH

| SMILES | IC50 [3] [µM] | selectivity ratio [9] | IC50 [10] [µM] | other results |
| --- | --- | --- | --- | --- |
| Cc1cccc(Nc2ncc([N+](=O)[O-])c(Nc3ccc4nc[nH]c4c3)n2)c1 | 0.78 | 28 | 22 | inhibition at 0.5 h, 1 µM [1]: 27.9%; inhibition at 0.5 h, 1 µM [2]: 15.6%; CLH [4]: 19 mL/min/g; inhibition at 0.5 h, 1 µM [5]: 83.8%; logD at 6 h [6]: 3.2; solubility [7]: 1 µM (≈ 0.361 µg/mL); inhibition at 0.5 h, 1 µM [8]: 25.3%; inhibition at 0.5 h, 1 µM [11]: 91%; inhibition at 0.5 h, 1 µM [12]: 69.8%; Papp at 5 h, 10 µM [13]: 3.8 ×10⁻⁶ cm/s; inhibition at 0.5 h, 1 µM [14]: 43.2%; inhibition at 0.5 h, 1 µM [15]: 54.9%; inhibition at 0.5 h, 1 µM [16]: 76.7% |
| NS(=O)(=O)c1cccc(Nc2nccc(Nc3ccc4nc[nH]c4c3)n2)c1 | 4.2 | > 6 | > 25 | – |
| Cc1cccc(Nc2ncc(C)c(Nc3ccc4nc[nH]c4c3)n2)c1 | 0.77 | 8.6 | 6.6 | – |
| Cc1c2ccc(Nc3ccnc(Nc4ccc(S(N)(=O)=O)cc4)n3)cc2nn1C | 13 | > 1.9 | > 25 | – |
| Cc1ccc(Nc2nccc(Nc3ccc4nc[nH]c4c3)n2)cc1 | 1.4 | > 18 | > 25 | – |
| Cc1ccc(Nc2nccc(Nc3ccc4cn[nH]c4c3)n2)cc1 | 2.5 | 7.2 | 18 | – |
| Cc1cccc(Nc2nccc(Nc3ccc4cn[nH]c4c3)n2)c1 | 3.6 | 4.2 | 15 | – |
| CS(=O)(=O)Nc1cccc(Nc2nccc(Nc3ccc4nc[nH]c4c3)n2)c1 | 2.8 | > 8.9 | > 25 | – |
| Brc1ccc(Nc2nccc(Nc3ccc4cn[nH]c4c3)n2)cc1 | 1.6 | 13 | 20 | – |
| Cc1cc(Nc2nccc(Nc3ccc4nc[nH]c4c3)n2)ccc1N1CCN(C)CC1 | 0.42 | 36 | 15 | inhibition at 0.5 h, 1 µM [1]: 2.9%; inhibition at 0.5 h, 1 µM [2]: 15.7%; CLH [4]: 1.8 mL/min/g; inhibition at 0.5 h, 1 µM [5]: 35.4%; logD at 6 h [6]: 2.9; solubility [7]: 16 µM (≈ 6.63 µg/mL); inhibition at 0.5 h, 1 µM [8]: 57.3%; inhibition at 0.5 h, 1 µM [11]: 63.5%; inhibition at 0.5 h, 1 µM [12]: 71%; Papp at 5 h, 10 µM [13]: 0.02 ×10⁻⁶ cm/s; inhibition at 0.5 h, 1 µM [14]: 44.4%; inhibition at 0.5 h, 1 µM [15]: 57.8%; inhibition at 0.5 h, 1 µM [16]: 108% |
| NS(=O)(=O)c1ccc(Nc2ncc(Cl)c(Nc3ccc4nc[nH]c4c3)n2)cc1 | 2.5 | 3.1 | 7.8 | – |
| CC(=O)c1ccc(NC(=O)Nc2ccc(N(C)c3ccnc(Nc4cccc(CS(C)(=O)=O)c4)n3)cc2)cc1 | 0.12 | – | – | cytotoxicity [17]: 86% |
| c1cc(Nc2nccc(Nc3ccc4nc[nH]c4c3)n2)cc(N2CCOCC2)c1 | 2.4 | 4 | 9.6 | – |
| c1cc(Nc2ccc3cn[nH]c3c2)nc(Nc2ccc(N3CCOCC3)cc2)n1 | 2.2 | 3.6 | 8 | – |
| O=C(O)c1ccc(Nc2nccc(Nc3ccc4nc[nH]c4c3)n2)cc1 | 8.2 | > 3 | > 25 | – |
| c1cc(Nc2ccc3nc[nH]c3c2)nc(Nc2ccc(N3CCOCC3)cc2)n1 | 3.2 | > 7.8 | > 25 | – |
| CN1CCN(c2ccc(Nc3ncc(C#N)c(Nc4ccccc4C(N)=O)n3)cc2)CC1 | 0.04 | – | – | cytotoxicity [17]: 43% |

| SMILES | IC50 [3] [µM] | selectivity ratio [9] | IC50 [10] [µM] | other results |
| --- | --- | --- | --- | --- |
| CN1CCN(c2ccc(Nc3nccc(Nc4ccc5nc[nH]c5c4)n3)cc2)CC1 | 0.66 | > 38 | > 25 | inhibition at 0.5 h, 1 µM [1]: 7.9%; inhibition at 0.5 h, 1 µM [2]: 20.6%; CLH [4]: 0.8 mL/min/g; inhibition at 0.5 h, 1 µM [5]: 41.6%; logD at 6 h [6]: 2.3; solubility [7]: 124 µM (≈ 49.7 µg/mL); inhibition at 0.5 h, 1 µM [8]: 85%; inhibition at 0.5 h, 1 µM [11]: 75.9%; inhibition at 0.5 h, 1 µM [12]: 91.3%; Papp at 5 h, 10 µM [13]: 0.02 ×10⁻⁶ cm/s; inhibition at 0.5 h, 1 µM [14]: 47.9%; inhibition at 0.5 h, 1 µM [15]: 69.2%; inhibition at 0.5 h, 1 µM [16]: 89.3% |
| CN1CCN(c2cccc(Nc3nccc(Nc4ccc5nc[nH]c5c4)n3)c2)CC1 | 0.87 | 13 | 11 | – |
| C[C@H]1[C@@H](O)O[C@@H]2O[C@@]3(C)CC[C@H]4[C@H](C)CC[C@@H]1[C@@]24OO3 [ARTENIMOL] | 0.031 | – | – | – |
| Cc1cccc(Nc2nccc(Nc3ccc4nc[nH]c4c3)n2)c1 | 0.98 | 20 | 20 | – |
| Cc1cnc(Nc2ccc(S(N)(=O)=O)cc2)nc1Nc1ccc2nc[nH]c2c1 | 3.2 | 5.6 | 18 | – |
| Cc1c2ccc(Nc3ccnc(Nc4cccc(S(N)(=O)=O)c4)n3)cc2nn1C | 10 | 1.9 | 19 | – |
| O[C@@H](c1cc(C(F)(F)F)nc2c(C(F)(F)F)cccc12)[C@H]1CCCCN1 [(S,R)-MEFLOQUINE] | 0.014 | – | – | – |
| CCc1nc(N)nc(N)c1-c1ccc(Cl)cc1 [PYRIMETHAMINE] | 0.004 | – | – | – |
| CN1CCN(c2cccc(Nc3nccc(Nc4ccc5cn[nH]c5c4)n3)c2)CC1 | 1.1 | 6.1 | 6.7 | – |
| CN1CCN(c2ccc(Nc3nccc(Nc4ccc5cn[nH]c5c4)n3)cc2)CC1 | 0.6 | 12 | 7 | – |
| NS(=O)(=O)c1ccc(Nc2nccc(Nc3ccc4nc[nH]c4c3)n2)cc1 | 8.2 | > 3 | > 25 | – |
| NS(=O)(=O)c1ccc(Nc2nccc(Nc3ccc4cn[nH]c4c3)n2)cc1 | 19 | 1.2 | 22 | – |
| Brc1cccc(Nc2nccc(Nc3ccc4cn[nH]c4c3)n2)c1 | 2.6 | 6.5 | 17 | – |
| Cc1cccc(Nc2ncc(Cl)c(Nc3ccc4nc[nH]c4c3)n2)c1 | 2 | 3.7 | 7.4 | – |
| NC(=O)c1ccc(Nc2nccc(Nc3ccc4cn[nH]c4c3)n2)cc1 | 5.4 | 3 | 16 | – |
| c1cc(Nc2nccc(Nc3ccc4cn[nH]c4c3)n2)cc(N2CCOCC2)c1 | 4.2 | 3.8 | 16 | – |
